Results reported in patent publication US7834164B2 (priority 2006, dated 2010).
Bridge positions count the residues as written; N and C are the ends. Square brackets hold non-standard residues; d marks the D form. Peptide text beside a SMILES is read from it. 1Nal = N[C@@H](Cc1cccc2ccccc12)C(=O)O

What was measured:
[1] = test system: IL-2R on T cells in human whole blood; assay type: cell-based
[2] = test system: IFNγ production from human PBMCs; assay type: cell-based
[3] = rat, in vivo, iv, 1 mg/kg
[4] = test system: AT-EAE model of multiple sclerosis; design: species or system Lewis rats; conditions: rat, in vivo, sc
[5] = test system: IFNγ production from human PBMCs; assay type: cell-based; remark: listed apart in the source
[6] = test system: CD40L on T cells in human whole blood; assay type: cell-based
[7] = test system: IL-2 production in human whole blood; assay type: cell-based
[8] = test system: IFN-g production in human whole blood; assay type: cell-based
[9] = biological target: T1, human Kv1.1 (Homo sapiens, UniProt Q09470); assay type: cell-based; conditions: read-out: Kv1.1 Analogue Activity (IC50)
T1 construct: expressed in transfected cells; host or cells: HEK293
T1 sequence (Q09470 whole entry): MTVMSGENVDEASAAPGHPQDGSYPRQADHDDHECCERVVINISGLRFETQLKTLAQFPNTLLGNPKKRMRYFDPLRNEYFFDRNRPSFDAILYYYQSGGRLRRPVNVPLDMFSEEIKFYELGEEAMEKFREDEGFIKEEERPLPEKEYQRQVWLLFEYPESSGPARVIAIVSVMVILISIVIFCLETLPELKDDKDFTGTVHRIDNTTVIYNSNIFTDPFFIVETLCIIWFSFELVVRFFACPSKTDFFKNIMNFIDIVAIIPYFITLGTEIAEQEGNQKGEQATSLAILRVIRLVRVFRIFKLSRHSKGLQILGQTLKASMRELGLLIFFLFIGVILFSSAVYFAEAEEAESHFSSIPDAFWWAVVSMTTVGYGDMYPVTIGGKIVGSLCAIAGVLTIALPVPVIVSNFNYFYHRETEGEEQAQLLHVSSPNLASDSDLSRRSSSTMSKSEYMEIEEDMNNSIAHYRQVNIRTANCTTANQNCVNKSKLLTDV

[10] = biological target: T2, human Kv1.3 (Homo sapiens, UniProt P22001); assay: Immunohistochemistry, binding to HEK 293 cells overexpressing human Kv1.3; design: expressed in transfected cells; conditions: 5 μg/ml, fixed cells, confocal microscopy
T2 sequence (P22001 whole entry): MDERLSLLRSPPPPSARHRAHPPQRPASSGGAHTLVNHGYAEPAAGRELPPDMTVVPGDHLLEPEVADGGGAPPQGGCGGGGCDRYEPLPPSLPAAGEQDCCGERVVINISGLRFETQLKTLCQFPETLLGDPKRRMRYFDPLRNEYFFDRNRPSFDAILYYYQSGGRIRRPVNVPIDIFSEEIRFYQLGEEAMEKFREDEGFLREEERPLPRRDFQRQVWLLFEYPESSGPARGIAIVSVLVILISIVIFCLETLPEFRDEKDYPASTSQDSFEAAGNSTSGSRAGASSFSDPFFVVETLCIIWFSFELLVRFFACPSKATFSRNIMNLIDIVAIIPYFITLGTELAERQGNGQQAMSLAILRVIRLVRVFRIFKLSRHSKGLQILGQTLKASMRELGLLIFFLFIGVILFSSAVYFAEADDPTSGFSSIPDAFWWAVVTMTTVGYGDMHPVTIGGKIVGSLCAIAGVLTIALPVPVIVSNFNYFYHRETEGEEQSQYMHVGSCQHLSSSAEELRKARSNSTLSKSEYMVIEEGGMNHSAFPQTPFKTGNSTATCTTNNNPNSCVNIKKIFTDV
Experimental: Immunohistochemistry analysis of Fc-L10-ShK[1-35] binding to HEK 293 cells overexpressing human Kv1.3. HEK 293 cells overexpressing human Kv1.3 (HEK Kv1.3) were obtained from BioFocus plc (Cambridge, UK) and maintained per manufacturer's recommendation. The parental HEK 293 cell line was used as a control. Cells were plated on Poly-D-Lysine 24 well plates (#35-4414; Becton-Dickinson, Bedford, Mass.) and allowed to grow to approximately 70% confluence. HEK KV1.3 were plated at 0.5×10e5 cells/well in 1 ml/well of medium. HEK 293 cells were plated at a density of 1.5×10e5 cells/well in 1 ml/well of medium. Before staining, cells were fixed with formalin (Sigma HT50-1-1 Formalin solution, diluted 1:1 with PBS/0.5% BSA before use) by removing cell growth medium, adding 0.2 ml/well formalin solution and incubating at room temperature for ten minutes. Cells were stained by incubating with 0.2 ml/well of 5 μg/ml Fc-L10-ShK[1-35] in PBS/BSA for 30′ at room temperature. Fc-L10-ShK[1-35] was aspirated and then the cells were washed one time with PBS/0.5% BSA. Detection antibody (Goat F(ab)2 anti-human IgG-phycoerythrin; Southern Biotech Associates, Birmingham, Ala.) was added to the wells at 5 μg/ml in PBS/0.5% BSA and incubated for 30′ at room temperature. Wash cells once with PBS/0.5% BSA and examine using confocal microscopy (LSM 510 Meta Confocal Microscope; Carl Zeiss AG, Germany). […]

[11] = test system: T cell proliferation in human PBMCs; assay: T cell proliferation (3H-thymidine incorporation), anti-CD3/anti-CD28 stimulated PBMCs; assay type: cell-based; conditions: aCD3/aCD28 stimulated PBMCs from two normal donors
Excerpt: Inhibition of T cell proliferation following anti-CD3 and anti-CD28 antibody stimulation of PBMCs. PBMC's were previously isolated from normal human donor Leukophoresis packs, purified by density gradient centrifugation (Ficoll Hypaque), cryopreserved in CPZ Cryopreservation Medium Complete (INCELL, MCPZF-100 plus 10% DMSO final). PBMC's were thawed (95% viability), washed, and seeded at 2×10^5 cells per well in culture medium (RPMI medium 1640; GIBCO) supplemented with 10% fetal calf serum, 100 U/ml penicillin, […] streptomycin, 2 mM L-glutamine, 100 μM non-essential amino acids, and 20 μM 2-ME) in 96-well flat-bottom tissue culture plates. Cells were pre-incubated with either anti-human CD32 (FcyRII) blocking antibody (per manufacturers instructions EASY SEP Human Biotin Selection Kit #18553, StemCell Technologies Vancouver, BC) or Fc-L10-ShK (100 nM-0.001 nM final) for 45 min. Fc-L10-ShK (100 nM-0.001 nM final) was then added to the cells containing anti-human CD32 blocking antibody while medium was added to the cells containing Fc-L10-ShK. Both sets were incubated for an additional 45 min before stimulating for 48 hr with aCD3/aCD28 (0.2 ng/ml and 100 ng/ml, respectively). Final assay volume was 200 ul. […] Cells were then harvested onto glass fiber filters and radioactivity was measured in a B-scintillation counter.

[12] = biological target: T2, human Kv1.3; assay type: binding; design: expressed in transfected cells

CC[C@H](C)[C@@H]1NC(=O)[C@@H](NC(=O)[C@H](CO)NC(=O)[C@@H](N)CCCNC(=N)N)CSSC[C@@H](C(=O)O)NC(=O)[C@H]([C@@H](C)O)NC(=O)CNC(=O)[C@@H]2CSSC[C@@H]3NC(=O)[C@H](CCC(N)=O)NC(=O)[C@H](Cc4ccccc4)NC(=O)[C@H](C)NC(=O)[C@H]([C@@H](C)O)NC(=O)[C@H](CSSC[C@H](NC(=O)[C@H](Cc4ccccc4)NC(=O)[C@H](CO)NC(=O)[C@H](CC(C)C)NC(=O)[C@H](CCCNC(=N)N)NC(=O)[C@H](Cc4ccc(O)cc4)NC(=O)[C@H](CCCCN)NC(=O)[C@H](CCSC)NC(=O)[C@H](CO)NC(=O)[C@H](Cc4cnc[nH]4)NC(=O)[C@H](CCCCN)NC3=O)C(=O)N[C@@H](CCCNC(=N)N)C(=O)N[C@@H](CCCCN)C(=O)N[C@@H]([C@@H](C)O)C(=O)N2)NC(=O)[C@H](CCCNC(=N)N)NC(=O)[C@H](CO)NC(=O)[C@H](CCCCN)NC(=O)[C@@H]2CCCN2C(=O)[C@H]([C@@H](C)CC)NC(=O)[C@H]([C@@H](C)O)NC(=O)[C@H](CC(=O)O)NC1=O [ShK]
thapsigargin-induced upregulation of the IL-2R on T cells in human whole blood (in words) [1]: suppressed
extent of inhibition of IFNγ production [2]: partial inhibition
time of significant suppression of Kv1.3 current (<70 POC) by 5% serum Test solutions [3]: ≤ 1 h
average body weight lost [4]: 30 g
disease severity and survival (in words) [4]: developed severe disease and died
onset of disease [4]: 4 days
extent of inhibition of IFNg production [5]: only partial inhibition
thapsigargin-induced upregulation of CD40L on T cells in human whole blood (in words) [6]: suppressed
thapsigargin-induced IL-2 production in human whole blood (in words) [7]: suppressed
thapsigargin-induced IFN-g production in human whole blood (in words) [8]: suppressed

CC[C@H](C)[C@@H]1NC(=O)[C@H](Cc2cccc3ccccc23)NC(=O)[C@@H](NC(=O)[C@H](CCCCN)NC(=O)[C@@H](NC(=O)[C@H](CC(N)=O)NC(=O)[C@@H](NC(=O)[C@@H](NC(=O)[C@@H](NC(=O)CN)C(C)C)[C@@H](C)CC)[C@@H](C)CC)C(C)C)CSSC[C@@H]2NC(=O)[C@H](CCCCN)NC(=O)CNC(=O)[C@H](Cc3ccccc3)NC(=O)[C@H](CCCNC(=N)N)NC(=O)[C@H](CCSC)NC(=O)CNC(=O)[C@H](C)NC(=O)[C@H](CCCCN)NC(=O)[C@H](CCCCN)NC(=O)[C@@H]3CSSC[C@@H](C(=O)N[C@H](C(=O)N4CCC[C@H]4C(=O)N[C@@H](CCCCN)C(=O)O)[C@@H](C)O)NC(=O)[C@H](Cc4c[nH]cn4)NC(=O)[C@H](CSSC[C@H](NC(=O)[C@H](CCC(N)=O)NC(=O)[C@H](CCCNC(=N)N)NC(=O)[C@H](CO)NC1=O)C(=O)N[C@@H](CC(C)C)C(=O)N[C@@H](CCC(=O)O)C(=O)N1CCC[C@H]1C(=O)N3)NC(=O)[C@H](CCCCN)NC(=O)CNC(=O)[C@H](CC(N)=O)NC(=O)[C@H](CCSC)NC2=O [K9Nal] (H-GVIINVKC[1Nal]ISRQCLEPCKKAGMRFGKCMNGKCHCTPK-OH; disulfide 8-28, 14-33, 18-35)
IC50 [9]: 0.292 nM

Fc-L10-ShK[1-35]: Fc region of human IgG1 fused via L10 linker to Kv1.3 inhibitor peptide ShK[1-35]
thapsigargin-induced upregulation of the IL-2R on T cells in human whole blood (in words) [1]: suppressed
extent of inhibition of IFNγ production [2]: complete inhibition
binding to Kv1.3 overexpressing versus untransfected HEK 293 cells [10]: binds to Kv1.3 overexpressing HEK 293 cells but shows little binding to untransfected cells
inhibition of T cell proliferation [11]: potently inhibits proliferation of T cells in a dose-dependent manner
extent of inhibition of IFNg production [5]: nearly complete inhibition
response in enzyme-immunoassay on fixed HEK 293 cells stably transfected with human Kv1.3 [12]: dose-dependent increase in response
thapsigargin-induced upregulation of CD40L on T cells in human whole blood (in words) [6]: suppressed
